Read-outs that look alike come from different tables or passages of the source.
Columns and labels:
[1] = system: N. fowleri European KUL strain; details: amoebicidal effect; cited from earlier work
[2] = system: N. fowleri European KUL strain; experiment: Primary phenotypic organism-based screen at 10 μM (384-well); assay type: cell-based; details: Naegleria fowleri
[3] = system: N. fowleri European KUL strain; experiment: Naegleria cell-based assay, dose–response (CellTiter-Glo viability, 48 h)
Procedure: The compounds were screened against N. fowleri European KUL strain axenically cultured in Nelson’s medium supplemented with 10% fetal bovine serum at 37 °C.[59] The screening assay in 96- and 384-well formats (Z’-value of 0.95 ± 0.1) was performed as described elsewhere.[9] All the experiments were performed using trophozoites harvested during the logarithmic phase of growth.[60] The primary screen was performed in duplicate at 10 μM in a 384-well format (2,500 amoebae/well). The dose–response curves were generated in triplicate for the follow up compounds by serial dilution of compounds from 50 to 0.39 μM in a 96-well plate with 10,000 amoebae/well. Assay plates were incubated for 48 h at 37 °C, and cell viability was determined by a CellTiter-Glo Luminescent Cell Viability Assay.[9],[58]

[4] = Single-dose PK experiment of 2a; details: for concentration at 30 min: intraperitoneal, 20 mg/kg
NfCYP51 = NfCYP51 (Naegleria fowleri, UniProt A0A2H4A2U9); experiment: biochemical; assay type: binding
Sequence of NfCYP51 (A0A2H4A2U9 entry or part of it): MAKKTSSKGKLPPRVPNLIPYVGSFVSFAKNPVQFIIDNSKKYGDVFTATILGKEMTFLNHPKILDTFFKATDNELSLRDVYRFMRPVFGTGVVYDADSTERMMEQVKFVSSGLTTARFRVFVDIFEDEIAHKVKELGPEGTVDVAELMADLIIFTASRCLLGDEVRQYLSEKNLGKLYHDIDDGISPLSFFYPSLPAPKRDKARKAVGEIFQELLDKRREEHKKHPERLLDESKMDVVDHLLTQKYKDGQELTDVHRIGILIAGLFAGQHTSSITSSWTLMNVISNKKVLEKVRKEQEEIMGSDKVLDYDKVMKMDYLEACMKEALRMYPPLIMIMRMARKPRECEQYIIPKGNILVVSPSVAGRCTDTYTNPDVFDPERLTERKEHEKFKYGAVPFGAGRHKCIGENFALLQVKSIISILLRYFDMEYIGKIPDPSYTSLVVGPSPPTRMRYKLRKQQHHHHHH

[5] = cited from earlier work
in vivo = details: female, C57BL/6, mouse, ip, 40 mg/kg
Procedure: All mice were maintained on a 12 h light/dark cycle in a temperature-controlled environment with access to food and water ad libitum. […] Mice were sacrificed 1 h following the drug administration, and blood and brain samples were collected. Blood (100 μL) was quickly added with 5-fold H2O/CH3CN 8:2, centrifugated to 2500 rpm for 15 min, and plasma was collected. Brain was homogenized in 0.5 mL of distilled water and added with 2 mL of CH3CN. Thus, homogenates were centrifugated to 2500 rpm for 15 min and the supernatants were collected. Plasma and brain supernatants were stored at −20 °C until analysis.
All experiments involving animals were carried out according to Sapienza University’s Ethics Committee, approval code 890/2021-PR, approved on 17 November 2021. Animal care followed the IASP and European Community (EC L358/1, 18/12/86) guidelines on using and protecting animals in experimental research. Eight week-old female C57BL/6 mice were used for the experiments (Charles River, Lecco, Italy).
The targeted analysis was performed by a Waters system composed of a 1525 μ HPLC (Milford, MA, USA), coupled with a Quattro Micro Tandem MS/MS with an ESI source (Micromass, Manchester UK), using a Supelco Ascentis Express C18 (15 cm × 2.1 mm) 2.7 μm analytical column, A (deionized water/formic acid 0.02%) and B (acetonitrile/formic acid 0.02%) as mobile phase, with the following optimized elution binary gradient with linear interpolation: 0–1 min, 30% B; 1–16 min, 45% B; 16–17 min, 45% B; 17–18 min, 30% B; 18–38 min, 30% B to equilibrate the column, flow rate 0.20 mL min^–1. […] Data acquisition, data handling, and instrument control were performed by MassLynx Software 4.1 v (Data Handling System for Windows, Micromass, UK).
Calibration curves were calculated with equal weighted least-squares linear regression analysis of the MRM peak area against the standard nominal concentration. […] The matrix effect (ME) for each compound, in brain (B) and in plasma (P), was evaluated by comparing the matrix-matching calibration curve (2.5, 10, 25, and 50 ng mL^–1) with the corresponding calibration curve.[65]
The biological samples were appropriately diluted with the mobile phase (A:B, 70:30, v:v), filtered at 0.22 μm, and analyzed in triplicate (25 μL injected).

Naegleria = details: mouse model of PAM, 20 mg/kg dose; cited from earlier work
[6] = 10 µM, supplement CSV, read-out: % Inhibition at 10 µM against N. fowleri KUL strain
[7] = Table S1, mean of two biological duplicates, read-out: % Inhibition at 10 µM
[8] = concentration for 50% growth inhibition from dose–response curves, triplicate, axenically cultured N. fowleri trophozoites
[9] = 0.5 μM NfCYP51, inhibitor 0.025–0.5 μM, ≤ values estimated from linear dependence of binding, read-out: KD
[10] = average brain distribution coefficient (brain/plasma ratio)

For `CCC(C)n1ncn(-c2ccc(N3CCN(c4ccc(OCC5COC(Cn6cncn6)(c6ccc(Cl)cc6Cl)O5)cc4)CC3)cc2)c1=O` (centres unmarked) [itraconazole], the EC50 [1] is given as no more than 0.01 µM.
Work on `O=C(Nc1ccc(N2CCN(c3ccc(Cl)cc3)CC2)cc1)OC(Cn1ccnc1)c1ccc(F)cc1` (centres unmarked) [Compound 2d] yielded an inhibition at 10 µM [2, 6] of 66.5 ± 3.5% and an inhibition at 10 µM [2, 7] of 66.5 ± 3.5%.
Work on `O=C(O[C@H](Cn1ccnc1)c1ccc(F)cc1)c1cc(Cl)cc(Cl)c1` [Compound 4b, (S)-1-(4-Fluorophenyl)-2-(1H-imidazol-1-yl)ethyl 3,5-Dichlorobenzoate] yielded an EC50 [3, 8] of 4.8 ± 0.05 µM.
`Clc1ccc(C(c2ccn(-c3ccc(Cl)cc3)c2)n2ccnc2)cc1` (centres unmarked) [Compound 2g] showed an inhibition at 10 µM [2, 6] of 47 ± 7.1% and an inhibition at 10 µM [2, 7] of 47 ± 7.1%.
For `O=C(O)c1cccc(C(F)(F)F)c1` [3-trifluoro benzoic acid], the “circulating metabolite of 2a” value ([4]; after 2a 20 mg/kg intraperitoneally) was “one of the main circulating metabolites for up to 24 h”.
Compound `COc1ccc(C(Cc2ccc(-n3cccc3)cc2)n2ccnc2)cc1` (centres unmarked) [Compound 2i] has an inhibition at 10 µM [2, 6] of 37.5 ± 30.4% and an inhibition at 10 µM [2, 7] of 37.5 ± 30.4%.
For `Clc1ccc(COC(Cn2ccnc2)c2ccc(Cl)cc2Cl)c(Cl)c1` (centres unmarked) [Compound 1, miconazole], the Kd (NfCYP51) is given as no more than 0.005 µM and the elimination half-life [5] is given as 24 h.
`O=C(O[C@H](Cn1cncn1)c1ccc(F)cc1)c1cccc(C(F)(F)F)c1` [Compound 7, (S)-1-(4-Fluorophenyl)-2-(1H-1,2,4-triazol-1-yl)ethyl 3-(Trifluoromethyl)benzoate] gave a Kd (NfCYP51; [9]) of 0.087 ± 0.01 µM and an EC50 [3, 8] of 20.6 ± 0.04 µM.
`COc1ccc(C(Cc2ccc(Cl)cc2)n2ccnc2)cc1` (centres unmarked) [Compound 2f] showed an inhibition at 10 µM [2, 6] of 54.5 ± 0.7% and an inhibition at 10 µM [2, 7] of 54.5 ± 0.7%.
For `O=C(O[C@@H](Cn1ccnc1)c1ccc(Cl)cc1Cl)c1cccc(C(F)(F)F)c1` [Compound 5a, (R)-1-(2,4-Dichlorophenyl)-2-(1H-imidazol-1-yl)ethyl 3-(Trifluoromethyl)benzoate], the Kd (NfCYP51; [9]) was 0.161 ± 0.008 µM and the EC50 [3, 8] was 10.2 ± 0.03 µM.
Compound `O=C(OC(Cn1ccnc1)c1ccccc1)c1cccc(C(F)(F)F)c1` (centres unmarked) [Compound 2c] has an inhibition at 10 µM [2, 6] of 53.5 ± 6.4% and an inhibition at 10 µM [2, 7] of 53.5 ± 6.4%.
With `O=C(OC(Cn1ccnc1)c1ccc(F)cc1)c1cccc(C(F)(F)F)c1` (centres unmarked) [Compound 2a] the inhibition at 10 µM ([2]; read-out: % inhibition at 10 μM, 10 μM, N. fowleri KUL strain) was roughly 50%, the inhibition at 10 µM [2, 6] was 51.5 ± 13.4% and the inhibition at 10 µM [2, 7] was 51.5 ± 13.4%. The Kd (NfCYP51; [9]) was 0.088 ± 0.004 µM, the concentration at 30 min ([4]; brain) was 100 ng/g and the concentration at 30 min ([4]; plasma) was 4 ng/mL.
For `Fc1ccc([C@@H](Cn2ccnc2)OCc2cc(Cl)cc(Cl)c2)cc1` [Compound 8b, (S)-1-(2-((3,5-Dichlorobenzyl)oxy)-2-(4-fluorophenyl)ethyl)-1H-imidazole], the Kd (NfCYP51; [9]) was 0.007 ± 0.002 µM, the “brain/plasma (B/P)” value (in vivo; 1 h) was 0.35 and the Kp at 1 h (in vivo; [10]) was 0.43 ± 0.08. The Kp at 1 h (in vivo; brain/plasma (B/P)) was 0.51 and the EC50 [3, 8] was 2.4 ± 0.04 µM.
With `COc1ccc([C@@H](Cn2ccnc2)OC(=O)c2cccc(C(F)(F)F)c2)cc1` [Compound 3b, (S)-2-(1H-Imidazol-1-yl)-1-(4-methoxyphenyl)ethyl 3-(Trifluoromethyl)benzoate] the EC50 [3, 8] was 24 ± 0.9 µM and the EC50 ([3]; supplement CSV) was 24.8 ± 0.9 µM.
`COc1ccc([C@H](Cn2ccnc2)OC(=O)c2cccc(C(F)(F)F)c2)cc1` [Compound 3a, (R)-2-(1H-Imidazol-1-yl)-1-(4-methoxyphenyl)ethyl 3-(Trifluoromethyl)benzoate] showed an inhibition at 50 µM ([3]; read-out: % inhibition at 50 μM) of 69%.
For `FC(F)(F)c1cccc(CO[C@H](Cn2ccnc2)c2ccc(Cl)cc2Cl)c1` [Compound 9b, (S)-1-(2-(2,4-Dichlorophenyl)-2-((3-(trifluoromethyl)benzyl)oxy)ethyl)-1H-imidazole], the Kd (NfCYP51; [9]) was no more than 0.005 µM, the “average brain distribution coefficient (brain/plasma ratio)” value (in vivo; 1 h) was roughly 1 and the “brain/plasma (B/P)” value (in vivo; 1 h) was 1.14. The Kp at 1 h (in vivo; [10]) was 1.02 ± 0.12, the Kp at 1 h (in vivo; brain/plasma (B/P)) was 0.89 and the EC50 [3, 8] was 1.5 ± 0.02 µM.
`Clc1ccc(-n2ccc(C(c3ccccc3)n3ccnc3)c2)cc1` (centres unmarked) [Compound 2h] gave an inhibition at 10 µM [2, 6] of 49 ± 9.9% and an inhibition at 10 µM [2, 7] of 49 ± 9.9%.
`O=C(O[C@H](Cn1ccnc1)c1ccc(Cl)cc1Cl)c1ccc(Cl)cc1Cl` [Compound 6b, (S)-1-(2,4-Dichlorophenyl)-2-(1H-imidazol-1-yl)ethyl 2,4-Dichlorobenzoate] gave a Kd (NfCYP51; [9]) of no more than 0.005 µM and an EC50 [3, 8] of 2.6 ± 0.03 µM.
In the case of `Clc1cc(Cl)cc(CO[C@H](Cn2ccnc2)c2ccc(Cl)cc2Cl)c1` [Compound 10b, (S)-1-(2-((3,5-Dichlorobenzyl)oxy)-2-(2,4-dichlorophenyl)ethyl)-1H-imidazole], the Kd (NfCYP51; [9]) is reported as no more than 0.005 µM and the EC50 [3, 8] is reported as 3.5 ± 0.01 µM.
In the case of `CC[C@@H]([C@H](C)O)n1ncn(-c2ccc(N3CCN(c4ccc(OC[C@@H]5CO[C@@](Cn6cncn6)(c6ccc(F)cc6F)C5)cc4)CC3)cc2)c1=O` [Posaconazole], the EC50 [1] is given as no more than 0.01 µM and the mice cured (Naegleria) is given as “two of six mice cured”.
Work on `OC(Cn1cncn1)(Cn1cncn1)c1ccc(F)cc1F` [Fluconazole, fluconazole, reference compound] yielded a Kd (NfCYP51; [9]) of 0.141 ± 0.021 µM.
Compound `O=C(O[C@H](Cn1ccnc1)c1ccc(Cl)cc1Cl)c1cccc(C(F)(F)F)c1` [Compound 5b, (S)-1-(2,4-Dichlorophenyl)-2-(1H-imidazol-1-yl)ethyl 3-(Trifluoromethyl)benzoate] has a Kd (NfCYP51; [9]) of 0.07 ± 0.002 µM and an EC50 [3, 8] of 4.3 ± 0.05 µM.
With `O=C(O[C@@H](Cn1ccnc1)c1ccc(F)cc1)c1cc(Cl)cc(Cl)c1` [Compound 4a, (R)-1-(4-Fluorophenyl)-2-(1H-imidazol-1-yl)ethyl 3,5-Dichlorobenzoate] the EC50 [3, 8] was 21.5 ± 0.04 µM.
`COc1ccc(CC(c2ccc(OC)cc2)n2ccnc2)cc1` (centres unmarked) [Compound 2e] showed an inhibition at 10 µM [2, 6] of 49.5 ± 6.4% and an inhibition at 10 µM [2, 7] of 49.5 ± 6.4%.
